# Test system: α7 integrin promoter
# Assay: muscle cell-based assay: α7βgal+/− myoblasts/myotubes, LacZ reporter, β-galactosidase cleavage of FDG
# Set-up: species or system mouse
# Conditions: Myotubes; for Results in a α7+/− β-galactosidase assay, Myotubes, 0.5 uM: compound at 0.5 uM; for Results in a α7+/− β-galactosidase assay, Myotubes, 1 uM: compound at 1 uM; for Results in a α7+/− β-galactosidase assay, Myotubes, 5 uM: compound at 5 uM; for Results in a α7+/− β-galactosidase assay, Myotubes, 10 uM: compound at 10 uM; for Results in a α7+/− β-galactosidase assay, Myotubes, 20 uM: compound at 20 uM; for Results in a α7+/− β-galactosidase assay, Myotubes, 40 uM: compound at 40 uM
# In short: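 Fluorescein generated from FDG by β-galactosidase reports α7 integrin promoter activity in differentiated myoblasts from α7+/− LacZ knock-in pups. Screening hits then went to dose-response, western blotting and a myostatin counterscreen.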
SMILES,"Results in a α7+/− β-galactosidase assay, Myotubes, 0.5 uM","Results in a α7+/− β-galactosidase assay, Myotubes, 1 uM","Results in a α7+/− β-galactosidase assay, Myotubes, 5 uM","Results in a α7+/− β-galactosidase assay, Myotubes, 10 uM","Results in a α7+/− β-galactosidase assay, Myotubes, 20 uM","Results in a α7+/− β-galactosidase assay, Myotubes, 40 uM"
Cc1ccc2c(c1)/C(=C/c1ccccc1C)C(=O)N2 [drawing 350],−0.01581,−0.0839,−0.04071,0.0246,−0.4093,−0.6283
O=C(NCCc1ccccc1)C1CCC(=O)N1C1CCCC1 (stereo not drawn) [drawing 351],0.05429,−0.1351,0.08688,0.1206,−0.1635,−0.1123
CCCN(C(=O)c1ccc(S(=O)(=O)N2CCCC2)cc1)C1CCS(=O)(=O)C1 (stereo not drawn) [drawing 352],−0.1044,−0.1728,−0.01555,0.1537,−0.08104,−0.06466
C=CCOc1ccc(C(=O)/C=C2\C(=O)Nc3ccccc32)cc1 [drawing 353],−0.02111,−0.0826,−0.09703,0.05145,−0.2835,−0.2827
CCN(CC(=O)NCc1cccs1)C(=O)COc1ccc(C(N)=O)cc1 [drawing 354],0.06872,−0.07237,0.09763,0.2952,−0.2218,−0.02391
CC(C)Oc1cccc(C(=O)Nc2ccc(CN3CCOCC3)cc2)c1 [drawing 355],−0.02164,−0.1398,0.1741,0.1947,−0.2357,−0.1159
Cc1ccc(/C=C2\C(=O)Nc3ccccc32)o1 [drawing 356],0.09656,−0.02249,−0.1043,−0.06876,−0.2369,−0.336
O=c1[nH]c(CN2CCCCC2)cc2c1C1(CCCCC1)Cc1ccccc1-2 [drawing 357],0.1087,0.1264,−0.08739,−0.0441,−0.09507,−0.1888
COc1ccccc1NS(=O)(=O)c1cc(NC(=O)c2ccc(Cl)nc2)ccc1N1CCCC1 [drawing 358],0.1418,0.2243,0.0609,0.2352,−0.07572,−0.1492
N#C/C(=C1/C(=O)Nc2ccc(Br)cc21)c1ccccn1 [drawing 359],0.2651,0.03214,−0.1525,−0.1528,−0.2624,−0.2931
N#CC1=C2SCN(c3ccccc3)CN2C(=O)CC1c1cccs1 (stereo not drawn) [drawing 360],0.09082,0.1158,−0.0988,−0.03259,−0.2578,−0.3783
COc1ccc(C(=O)/C=C2\C(=O)Nc3ccccc32)cc1 [drawing 361],0.1208,0.06821,−0.04505,−0.256,−0.3122,−0.5124

# — patent US10028992B2, “Methods of treating muscular dystrophy” (BOARD OF REGENTS OF THE NEVADA SYSTEM OF HIGHER EDUCATION …, priority 2012, dated 2018)
